Measured values: article PMC7545998, “A snake toxin as a theranostic agent for the type 2 vasopressin receptor” (Theranostics, 2020)

Assays:
[1] = test system: rat model of hyponatremia; experiment: Rat model of dDAVP-induced hyponatremia; type: in vivo
Protocol: Hyponatremia was induced in rats by continuous infusion of 10 ng/h of dDAVP and water gavage (Figure 2A). At day 0 (D0), the basal plasma sodium concentration was 145 ± 6 mM. […] In controls, plasma sodium decreased to 134 ± 1 mM and 125 ± 3 mM at D3 and D4, respectively. […] The concentration of 10 µg/kg increased plasma sodium by 12 mmol/l/24 h. This is considered as the highest acceptable correction rate in humans in order to avoid risk of osmotic demyelination. Rat weights were monitored during the experiment, each rat being its own reference.
Specific pathogen-free adult male Sprague-Dawley rats (body weight between 445 and 525 grams) were from Janvier laboratories (Le Genest St. Isle, 53941, Saint Berthevin Cedex, France) and acclimatized to the animal house conditions for 1 week. […] A stock […] solution of desmopressin (dDAVP) was prepared by dissolving 5 mg of drug in physiological saline. dDAVP was administered using subcutaneous ALZET osmotic mini-pumps (model 2002, DURECT Corporation, Cupertino, CA95014, USA) previously filled with a solution of dDAVP (pumping rate of 0.47±0.02 µL/h and mean fill volume of 233.6±4.7 µL). The dose of dDAVP (10 ng/h) was determined in preliminary experiments. Buprenorphine (Centravet, 03120 Lapalisse, France) was administered once a day at a dose of 0.02 mg/kg, s.c. from day 0 to day 3 in order to suppress post-operative pain. Water gavage (30 mL/kg) was performed 2 times per day (at 9 am and 4 pm) in the first 3 days following ALZET pump implantation, and at 9 am at day 4. Body weight was recorded every day in order to adjust for the volume of water to be administered. Rats had free access to standard rat chow, as well as water in their cages. […] On days 0, 2, 3 and 4, at 9 am, 400 µL of blood was collected from isoflurane- anesthetized rats from the tail vein with lithium heparinate (Sanofi-Aventis, Gentilly, France). Samples were centrifuged (4 °C, 2000 g, 5 min). Sodium was quantified by the Central Laboratory of the ENVT, Toulouse, France, on a VITROS 250/350/950/ 5, 1 FS, 4600 and integrated system VITROS 5600 (Ortho-Clinical Diagnostics, Buckinghamshire, United Kingdom). Multiple factor ANOVA followed by Tukey's test were used to test for significance. A P value < 0.05 was considered significant.

[2] = test system: porcine kidney epithelial cells LLC-pk1; experiment: Confocal imaging of endogenous V2R in LLC-pk1 cells; type: cell-based; settings: 3.4 µM, 30-min pre-incubation
Protocol: In cells endogenously expressing V2R, such as porcine kidney epithelial cells LLC-pk1, labeling of V2R with AFDye-488-MQ1 and Cy5.5-MQ1 (100 nM) was performed with either fresh or PFA-fixed cells (Figures 7A and B). […] In the pathophysiological context, three renal cancer cell lines (CAKI-2, ACHN and A498 [38]) known to express V2R were tested. […] The presence of V2R, at the cell membrane level, fluctuated as a function of cell density and the number of cell divisions, whatever the cell line used. […] To our knowledge, this is the first specific ligand labeling of V2R in non-permeabilized cancer cells.
Freshly dissociated CHO, LLC-PK1 or renal cancer cell lines expressing vasopressin receptors were seeded on 12-mm glass coverslips pre-coated with poly-ornithine, cultured for 48 h before incubation in DMEM, 0.2 mg/mL BSA, 25 mM HEPES, pH 7.4 for 1 h at 12°C or 30 min at 22 °C with fluorescent analogues in the absence or presence of non-fluorescent ligands (30-min pre-incubation). After 3 washes with cold PBS, the cells were finally fixed in 4% PFA overnight at 4 °C and mounted with Mowiol. The fluorescent cells were imaged using a Zeiss LSM510 Meta confocal microscope equipped with a ×63 (NA 1.4) oil immersion objective. For excitation, available laser rays were 488 and 633 nm and emission signals were collected in multitracking mode with appropriate band pass filters. […]

[3] = test system: 156 other GPCRs (including V1aR, V1bR and OTR); settings: at µM concentrations; cited from earlier work
Text: Named mambaquaretin (MQ1), this peptide was isolated from mamba snake venom.

Substance mambaquaretin [MQ1] has a plasma sodium ([1]; 10 µg/kg ([…]) s.c. on days 2-4, D3) of 145 ± 3 mM, a plasma sodium ([1]; 10 µg/kg ([…]) s.c. on days 2-4, D4) of 148 ± 2 mM and a plasma sodium ([1]; 100 µg/kg (16 nmol/kg) s.c. on days 2-4, D3) of 146 ± 2 mM. For the same substance, the plasma sodium ([1]; 100 µg/kg (16 nmol/kg) s.c. on days 2-4, D4) was 154 ± 2 mM, the “effect on labeling by AFDye-488-MQ1 and Cy5.5-MQ1” value [2] was “inhibited the labeling” and the “affinity for 156 other GPCRs (including V1aR, V1bR and OTR)” value [3] was “no affinity”.
